Paper PMC6317055, “Metabolites from the Paracel Islands Soft Coral Sinularia cf. molesta” (Marine Drugs, 2018)

Experiments:
[1] = target: T1, protein tyrosine phosphatase 1B (PTP1B) (Homo sapiens, UniProt P18031); experiment: PTP1B inhibitory assay, pNPP method
T1 sequence (P18031 1-435): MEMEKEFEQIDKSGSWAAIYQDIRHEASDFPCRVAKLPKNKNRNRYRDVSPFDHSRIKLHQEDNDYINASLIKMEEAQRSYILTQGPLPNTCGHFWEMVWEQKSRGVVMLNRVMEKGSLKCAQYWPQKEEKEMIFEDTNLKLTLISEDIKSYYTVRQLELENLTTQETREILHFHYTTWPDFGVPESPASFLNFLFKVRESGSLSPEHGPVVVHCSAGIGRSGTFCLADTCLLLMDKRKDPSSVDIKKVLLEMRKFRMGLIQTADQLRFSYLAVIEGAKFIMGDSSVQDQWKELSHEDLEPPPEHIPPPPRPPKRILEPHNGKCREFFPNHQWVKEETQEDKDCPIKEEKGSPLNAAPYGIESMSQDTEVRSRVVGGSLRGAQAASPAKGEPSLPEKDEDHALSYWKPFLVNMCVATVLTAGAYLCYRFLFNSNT
Procedure: These isolated sesquiterpenes were also assessed for their inhibitory activities against PTP1B.

[2] = Cytotoxicity assay, SRB method, HeLa; type: cell-based; conditions: human, adriamycin positive control, read-out: cytotoxicity IC50 against HeLa cell lines
Procedure: (§1) Considering the reported cytotoxic activities of some sesquiterpenes, cyclopentenone derivatives, and cembranoid diterpenes, all the compounds were evaluated for their cytotoxic activities against HeLa (human cervical carcinoma), HCT-116 (human colon carcinoma), BEL-7402 (human hepatocellular carcinoma), K562 (human leukemia), and Jurkat (human acute leukemia T) tumor cell lines.

[3] = Cytotoxicity assay, SRB method, HCT-116; type: cell-based; conditions: human, HCT-116 cells (human colon carcinoma); HCT-116, SRB method, adriamycin positive control; read-out: cytotoxicity IC50 against HCT-116 cell lines
Procedure: as §1

[4] = HeLa cells (human cervical carcinoma)

IC50 [1] [µM] | Compound | IC50 [2, 4] [µM] | also measured
218 | CC(C)C1=CC2=C(C(=O)C[C@@]2(C)O)[C@H](C)CC1 [Compound 4, Molestin C] | – | –
344 | COC12CCC(C)(O)C1=CC(=O)CCC2C (stereo not shown) [Compound 5, Molestin D] | – | –
1.24 | C=C/C(C)=C\CCC(C)Cc1cc(C(=O)O)co1 (stereo not shown) [Compound 8, (5′Z)-5-(2′,6′-Dimethylocta-5′,7′-dienyl)-furan-3-carboxylic acid] | – | –
– | C=C(C)C1CC2=C(C(=O)OC)C=C(O2)C(O)C(C)(O)CC2C=C(C(=O)O2)C(OC(C)=O)C1 (stereo not shown) [Compound 14, Molestin E] | – | IC50 [2]: 5.26 µM; IC50 [3]: 8.37 µM
– | C=C(C)[C@@H]1C/C=C2\C(=O)O[C@@H](C[C@]3(C)CC(=O)[C@H](CC(=O)C1)O3)[C@@H]2O [Compound 17, 5-epi-sinuleptolide] | 6.66 | –
– | C=C(C)[C@@H]1C/C=C2\C(=O)O[C@@H](C[C@]3(C)CC(=O)[C@@H](CC(=O)C1)O3)[C@@H]2O [Compound 18, sinuleptolide] | 6.1 | –
